Measurements published in patent US5798387A, “Amino acid derivatives” (Zaidan Hojin Biseibutsu Kagaku Kenkyu Kai, priority 1992, dated 1998).
Where a SMILES comes first, the peptide text is derived from it. [ ]: non-standard residue; d: D form. αMeS = C[C](N)(CO)C(=O)O; hSer = N[CH](CCO)C(=O)O

How the values were obtained:
[1] = tested on: bone-marrow cells (hematopoietic stem cells; megakaryocytes); test: Formation of colonies of megakaryocytes from bone-marrow cells (Test 3); assay type: cell-based, mouse (male BALB/c); conditions: Mus musculus, Bone marrow cell, 168 h, 7 days, no addition = 100, read-out: Number of colonies of megakaryocytes; for activity at 50 µg/mL: concentration of test compound 50 μg/ml; for activity at 5 µg/mL: concentration of test compound 5 μg/ml
Method: The activity of some amino acid derivatives of the general formula (I) according to this invention which induces proliferation of hematopoietic stem cells was tested in the following manner. Thus, bone-marrow cells had been prepared from the femurs of male BALB/c mouse (6-7 weeks old), and then a suspension of the bone-marrow cells was overlayed on "Lympholite M" (product of Cefalane Company), followed by centrifugation under 1500 g for 20 minutes. A lymphocyte fraction was collected, washed three times with "alpha MEM medium" (product of Gibco Company), and then diluted and suspended in the same medium as above to give a lymphocyte concentration of 7×10^6 cells/ml.
[…] of the resulting cell suspension, 50 μl of a solution of a test compound in physiological saline, 50 μl of a culture supernatant of WEHI-3, 100 μl of phosphate-buffered physiological saline, 50 μl of a pre-deionized 10% bovine serum albumin solution, 50 μl of an L-asparagin solution (200 μg/ml), 50 μl of a calcium chloride solution (260 μg/ml) and 50 μl of bovine plasma containing sodium citrate were combined together. The liquid mixture so obtained was poured in portions of 50 μl/well on a slide glass ("Glass Ware", product of Flaw Laboratory Company). After coagulation of the mixture, the slide glass bearing the coagulated masses was immersed in 10% FBS-added alpha MEM medium, followed by incubation at 37° C. under 5% CO2 for 7 days.
After completion of the incubation, the cells on the slide glass were immobilized with a 25% glutaraldehyde solution. In accordance with the methods proposed by Nagasawa et al. ["Zoketsu Kan Saibo (Hematopoietic Stem Cells)" compiled by takahisa Shimamaro, page 128 (The Nishimura Shoten Co., Ltd.)], the immobilized cells were stained for acetylcholinesterase activity which is specific for mouse megakaryocytes, and also the cells were stained with Mayer hematoxylin. Each cell culture so stained was dried and then sealed with a sealing agent. Under a microscope of ×100 magnification, the number of megakaryocytic colonies (i.e., the number of cells stained in an orange color) per well was counted.

[2] = tested on: T cells; test: T cell proliferation (Test 1), thymidine uptake of Concanavalin A-treated T cells; assay type: cell-based, rat (female Fisher 344); conditions: Rattus norvegicus, 72 h, 3 days, untreated cells = 100, read-out: Rate of stimulating proliferation of T cells; for activity at 0.1 µg/mL: concentration of compound 0.1 μg/ml; for activity at 1 µg/mL: concentration of compound 1 μg/ml; for activity at 10 µg/mL: concentration of compound 10 μg/ml
Text: Effects of the novel amino acid derivatives of the general formula (I) on the proliferation of T cells were investigated by the following procedure.
The spleens, which had been excised in sterility from female Fisher 344 rats (12-16 weeks old, purchased from CHARLES RIVER JAPAN, INC), were squeezed in RPMI 1640 medium (a product of NISSUI PHARMACEUTICAL CO., LTD.) supplemented with 10% of fetal bovine serum, followed by passage of the resulting cell suspension through a column containing nylon wool fibres, whereby a cell suspension containing an abundant amount of T cells was obtained. This cell suspension was diluted to a level of 1×10^6 cells/ml with addition of a medium of the same composition as above. The cell-containing medium so obtained was then added with 5 μg/ml of Concanavalin A (product of Pharmacia AB), followed by incubation at 37° C. for 4 hours. Four hours later, α-methylmannoside was added to the incubated medium to give a concentration of 20 mg/ml of α-methylmannoside. After stirring the medium, cells were separated and collected therefrom by centrifugation. The collected cells were suspended at a level of 3×10^6 cells/ml in a medium of the same composition as above, followed by placing the resulting cell suspension in 100 μl portions in a 96-well microplate.
Novel amino acid derivatives at various concentrations, which are shown in Table 4, were incorporated in an amount of 100 μl as the test compounds to the respective cell suspensions in the plate, followed by incubation at 37° C. for 3 days in an incubator under air atmosphere containing 5% of carbon dioxide. Meanwhile, eighteen hours before the completion of the incubation, a solution of 10μ Ci/ml of radioactively labeled thymidine (Thymidine "6-^3 H", a product of NEN Company) was added in an amount of 10 μl to the cell suspensions under incubation. The cells after the incubation were collected on a filter paper by means of a cell harvester, washed with water and radioactivity of the cells so treated was determined by a liquid scintillation counter. The determined values of the radioactivity of the cells as treated with the test compounds were evaluated on the assumption that the determined value of the radioactivity of the cells untreated, namely tested without addition of the test compound during the incubation of cells was amounting to 100. The so evaluated values are recorded and expressed as rates (%) for stimulating the T cell proliferation which show such extent that the proliferation of T cells is enhanced by the new amino acid derivative of this invention.

[3] = tested on: Ehrlich ascites carcinoma; test: Antitumor activity (Test 2), Ehrlich ascites carcinoma transplanted subcutaneously; assay type: in vivo, mouse (ICR); conditions: tumor weight on day 15 vs control
Method: The antitumor activity of some amino acid derivatives of the general formula (I) according to this invention was tested in the following manner. A suspension of Ehrlich ascites carcinoma cells was subcutaneously injected to one of the inguinal parts of each ICR mouse to transplant 4×10^6 cells/mouse. From the seventh day after the transplantation, a test compound was intraperitoneally injected daily for 7 days at a dose of 50, 5 or 0.5 mg/kg (4 mice per treated group of mice, but 8 mice per untreated control group of mice). On the fifteenth day after the transplantation, a solid cancer was cut out and weighed. A reduction in the weight of solid cancers of the mice in each treated group of mice which was evaluated in comparison with the control group is expressed as rate of inhibiting the tumor growth (%) in Table 5 below.

| SMILES | activity at 50 µg/mL [1] [%] | activity at 0.1 µg/mL [2] [%] | activity at 1 µg/mL [2] [%] | activity at 10 µg/mL [2] [%] | activity at 5 µg/mL [1] [%] | Tumor growth inhibiting rate ([3]; 5 mg/kg i.p. daily for 7 days) [%] | Tumor growth inhibiting rate ([3]; 50 mg/kg i.p. daily for 7 days) [%] | Tumor growth inhibiting rate ([3]; 0.5 mg/kg i.p. daily for 7 days) [%] |
| --- | --- | --- | --- | --- | --- | --- | --- | --- |
| CC(C)C(O)C(C)C(O)C(=O)NC(C)(CO)C(=O)O (stereo not drawn) [Compound 16] | 143 | 200 | 239 | 201 |  |  |  |  |
| CC(C)CC(NC(=O)C(O)C(C)C(C)O)C(=O)OCc1ccccc1 (stereo not drawn) [Compound 10] |  | 231 | 201 | 251 | 138 | 31 | 58 |  |
| CC(CC(=O)OCc1ccccc1)NC(=O)C(O)C(C)C(C)O (stereo not drawn) [Compound 28] |  |  |  |  | 121 |  |  |  |
| CC(O)C(C)C(O)C(=O)NC(CO)C(=O)O (stereo not drawn) [Compound 11] |  | 394 | 392 | 100 | 150 |  |  |  |
| CC(O)CC(=O)NC(C)(CO)C(=O)O (stereo not drawn) [Compound 5] | 178 | 313 | 370 | 439 |  |  |  |  |
| CC(C)C(O)C(=O)NC(C)(CO)C(=O)OCc1ccccc1 (stereo not drawn) [Compound 8] |  | 251 | 226 | 372 | 111 |  |  |  |
| CC(O)CC(=O)NC(C)(COCc1ccccc1)C(=O)OCc1ccccc1 (stereo not drawn) [Compound 6] |  | 142 | 171 | 169 | 126 |  |  |  |
| CC(CO)(NC(=O)C(N)CCO)C(=O)O (stereo not drawn) [Compound 27] (H-[hSer]-[αMeS]-OH; configuration not given here) | 143 |  |  |  |  |  |  |  |
| CC(O)C(C)C(O)C(=O)NC(CSCc1ccccc1)C(=O)OCc1ccccc1 (stereo not drawn) [Compound 20] |  | 153 | 227 | 261 | 129 |  |  |  |
| CC(O)C(C)C(O)C(=O)NC(CO)C(=O)OCc1ccccc1 (stereo not drawn) [Compound 12] |  | 265 | 185 | 242 | 105 |  |  | 37 |
| CC(CO)(NC(=O)C(O)C(C)(C)CO)C(=O)O (stereo not drawn) [Compound 13] |  | 405 | 352 | 465 | 177 |  |  |  |
| CC(C)CC(NC(=O)C(O)C(C)C(C)O)C(=O)O (stereo not drawn) [Compound 9] | 145 | 175 | 157 | 196 |  |  |  |  |
| CC(NC(=O)C(O)C(C)C(C)O)C(=O)O (stereo not drawn) [Compound 24] |  |  |  |  | 136 |  |  |  |
| CCC(C)CC(=O)NC(C)(CO)C(=O)OCc1ccccc1 (stereo not drawn) [Compound 2] |  | 208 | 190 | 275 | 122 |  |  |  |
| CC(O)C(C)C(O)C(=O)NC(C)(C)C(=O)OCc1ccccc1 (stereo not drawn) [Compound 25] | 156 |  |  |  |  |  |  |  |
| CC(CO)(NC(=O)C(O)C(C)(C)CO)C(=O)OCc1ccccc1 (stereo not drawn) [Compound 15] | 135 | 350 | 349 | 442 |  |  |  |  |
| COC(=O)C(CSC)NC(=O)C(O)C(C)C(C)O (stereo not drawn) [Compound 18] |  | 268 | 355 | 427 | 146 |  |  |  |
| CSCC(NC(=O)C(O)C(C)C(C)O)C(=O)OCc1ccccc1 (stereo not drawn) [Compound 19] | 156 | 289 | 310 | 251 |  | 12 |  |  |
| CCC(C)CC(=O)NC(C)(CO)C(=O)O (stereo not drawn) [Compound 1] |  | 292 | 297 | 332 | 147 |  |  |  |
| COC(=O)C(C)(CO)NC(=O)C(O)C(C)(C)CO (stereo not drawn) [Compound 14] |  | 356 | 335 | 443 | 167 |  |  |  |
| CC(NC(=O)C(O)C(C)C(C)O)C(=O)OCc1ccccc1 (stereo not drawn) [Compound 22] |  |  |  |  | 108 |  |  |  |
| CC(O)C(NC(=O)C(O)C(C)C(C)O)C(=O)O (stereo not drawn) [Compound 23] |  |  |  |  | 144 |  |  |  |
| CC(O)C(C)C(O)C(=O)NC(C)(C)C(=O)O (stereo not drawn) [Compound 26] |  |  |  |  | 136 |  |  |  |
| CC(C)C(O)C(C)C(O)C(=O)NC(C)(CO)C(=O)OCc1ccccc1 (stereo not drawn) [Compound 17] |  | 201 | 273 | 245 | 107 |  |  |  |
| CC(C)C(O)C(=O)NC(C)(CO)C(=O)O (stereo not drawn) [Compound 7] | 166 | 240 | 222 | 323 |  |  |  |  |
| CCCCOC(=O)C(C)(CO)NC(=O)CCC(C)O (stereo not drawn) [Compound 4] |  | 133 | 135 | 100 |  |  |  |  |
| CC(CC(=O)O)NC(=O)C(O)C(C)C(C)O (stereo not drawn) [Compound 29] | 121 |  |  |  |  |  |  |  |
| CC(O)CCC(=O)NC(C)(CO)C(=O)O (stereo not drawn) [Compound 3] |  | 123 | 100 | 101 |  |  |  |  |
